ChEMBL document CHEMBL1144481, “Cholinesterase inhibitors: SAR and enzyme inhibitory activity of 3-[omega-(benzylmethylamino)alkoxy]xanthen-9-ones” (Bioorg Med Chem, 2007)

Assays:
Acetylcholinesterase = Acetylcholinesterase (Homo sapiens, UniProt P22303); assay: Inhibition of human erythrocyte AchE
Homo sapiens [1] = organism: Homo sapiens; assay: Ratio of IC50 for BuChE to IC50 for AchE
Cholinesterase = Cholinesterase (Homo sapiens, UniProt P06276); assay: Inhibition of human serum BuChE
Homo sapiens [2] = organism: Homo sapiens; assay: Ratio of IC50 for AchE to IC50 for BuChE

Sequence of Cholinesterase (P06276 whole entry): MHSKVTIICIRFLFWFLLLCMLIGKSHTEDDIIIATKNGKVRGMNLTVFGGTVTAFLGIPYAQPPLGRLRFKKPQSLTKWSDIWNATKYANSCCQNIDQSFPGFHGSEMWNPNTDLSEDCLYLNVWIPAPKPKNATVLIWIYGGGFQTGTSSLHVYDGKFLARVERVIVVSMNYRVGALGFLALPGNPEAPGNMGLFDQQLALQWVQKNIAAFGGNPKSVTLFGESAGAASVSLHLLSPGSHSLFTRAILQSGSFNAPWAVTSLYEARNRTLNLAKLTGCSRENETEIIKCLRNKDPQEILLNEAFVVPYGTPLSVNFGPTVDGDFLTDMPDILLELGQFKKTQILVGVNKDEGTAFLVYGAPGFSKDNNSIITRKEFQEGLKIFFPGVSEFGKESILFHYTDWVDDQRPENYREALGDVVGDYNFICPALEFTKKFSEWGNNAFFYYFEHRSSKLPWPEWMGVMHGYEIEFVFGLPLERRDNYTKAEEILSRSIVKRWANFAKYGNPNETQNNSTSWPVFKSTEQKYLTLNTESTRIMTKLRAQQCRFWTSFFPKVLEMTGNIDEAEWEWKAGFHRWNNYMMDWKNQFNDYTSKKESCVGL
Sequence of Acetylcholinesterase (P22303 whole entry): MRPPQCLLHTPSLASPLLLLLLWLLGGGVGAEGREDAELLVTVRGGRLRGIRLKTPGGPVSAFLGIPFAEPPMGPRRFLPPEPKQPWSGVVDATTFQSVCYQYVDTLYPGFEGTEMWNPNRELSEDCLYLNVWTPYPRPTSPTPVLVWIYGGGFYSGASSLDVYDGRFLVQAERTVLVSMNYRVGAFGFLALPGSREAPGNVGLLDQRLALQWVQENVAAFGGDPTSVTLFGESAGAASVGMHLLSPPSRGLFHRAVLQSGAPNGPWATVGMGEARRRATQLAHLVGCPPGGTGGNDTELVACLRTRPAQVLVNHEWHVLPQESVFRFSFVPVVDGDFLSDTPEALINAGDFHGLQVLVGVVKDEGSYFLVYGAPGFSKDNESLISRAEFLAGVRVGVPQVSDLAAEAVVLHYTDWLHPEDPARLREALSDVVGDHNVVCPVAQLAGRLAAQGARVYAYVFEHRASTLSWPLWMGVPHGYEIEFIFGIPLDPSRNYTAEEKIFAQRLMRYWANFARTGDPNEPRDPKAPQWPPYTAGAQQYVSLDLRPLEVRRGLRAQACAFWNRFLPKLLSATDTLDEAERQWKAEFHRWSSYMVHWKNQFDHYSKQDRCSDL

Compound COc1ccccc1CN(C)CCCCCCCOc1ccc2c(=O)c3ccccc3oc2c1 has an IC50 (Acetylcholinesterase) of 2.18 µM, a Ratio IC50 (Homo sapiens [1]) of 0.43 and an IC50 (Cholinesterase) of 0.93 µM. For the same compound, the Ratio IC50 (Homo sapiens [2]) was 2.34.
With CNC(=O)Oc1cccc(CN(C)CCCCCCCOc2ccc3c(=O)c4ccccc4oc3c2)c1 the Ratio IC50 (Homo sapiens [1]) was 51.6 and the Ratio IC50 (Homo sapiens [2]) was 0.019.
For CN(CCCCCCCOc1ccc2c(=O)c3ccccc3oc2c1)Cc1ccc(Cl)cc1, the IC50 (Acetylcholinesterase) was 1050 µM, the Ratio IC50 (Homo sapiens [1]) was 0.12 and the IC50 (Cholinesterase) was 127 µM. For the same compound, the Ratio IC50 (Homo sapiens [2]) was 8.26.
With COc1cccc(CN(C)CCCCCCCOc2ccc3c(=O)c4ccccc4oc3c2)c1OC the IC50 (Acetylcholinesterase) was 138 µM, the Ratio IC50 (Homo sapiens [1]) was 0.014 and the IC50 (Cholinesterase) was 2.01 µM. For the same compound, the Ratio IC50 (Homo sapiens [2]) was 68.7.
With COc1ccc2c(=O)c3ccc(OCCCCCCCN(C)Cc4ccccc4)cc3oc2c1 the IC50 (Acetylcholinesterase) was 7.84 µM, the Ratio IC50 (Homo sapiens [1]) was 5.9 and the IC50 (Cholinesterase) was 46.1 µM. For the same compound, the Ratio IC50 (Homo sapiens [2]) was 0.17.
In the case of CCN(CCCCCCCOc1ccc2c(=O)c3ccccc3oc2c1)Cc1ccccc1OC, the IC50 (Acetylcholinesterase) is reported as 3.15 µM, the Ratio IC50 (Homo sapiens [1]) is reported as 0.1 and the IC50 (Cholinesterase) is reported as 0.32 µM. The Ratio IC50 (Homo sapiens [2]) was 9.8.
With CN(CCCCOc1ccc2c(=O)c3ccccc3oc2c1)Cc1ccccc1 the IC50 (Acetylcholinesterase) was 6.25 µM, the Ratio IC50 (Homo sapiens [1]) was 0.42 and the IC50 (Cholinesterase) was 2.65 µM. The Ratio IC50 (Homo sapiens [2]) was 2.36.
Compound COc1ccccc1CN(C)CCCOc1ccc2c(=O)c3ccccc3oc2c1 has an IC50 (Acetylcholinesterase) of 3.4 µM, a Ratio IC50 (Homo sapiens [1]) of 0.56 and an IC50 (Cholinesterase) of 1.91 µM. For the same compound, the Ratio IC50 (Homo sapiens [2]) was 1.78.
Compound CN(CCCCCCCCCOc1ccc2c(=O)c3ccccc3oc2c1)Cc1ccccc1 has a Ratio IC50 (Homo sapiens [2]) of 1520.
CN(CCCCCCCCCCOc1ccc2c(=O)c3ccccc3oc2c1)Cc1ccccc1 showed a Ratio IC50 (Homo sapiens [2]) of 3880.
Compound COc1cccc(CN(C)CCCCCCCOc2ccc3c(=O)c4ccccc4oc3c2)c1 has an IC50 (Acetylcholinesterase) of 40 µM, a Ratio IC50 (Homo sapiens [1]) of 0.05 and an IC50 (Cholinesterase) of 1.85 µM. For the same compound, the Ratio IC50 (Homo sapiens [2]) was 21.6.
In the case of CN(CCCCCCCOc1ccc2c(=O)c3ccccc3oc2c1)Cc1cccc(Cl)c1, the IC50 (Acetylcholinesterase) is reported as 594 µM, the Ratio IC50 (Homo sapiens [1]) is reported as 0.1 and the IC50 (Cholinesterase) is reported as 63.8 µM. The Ratio IC50 (Homo sapiens [2]) was 9.3.
Compound COc1ccc(OC)c(CN(C)CCCCCCCOc2ccc3c(=O)c4ccccc4oc3c2)c1 has an IC50 (Acetylcholinesterase) of 127 µM, a Ratio IC50 (Homo sapiens [1]) of 0.01 and an IC50 (Cholinesterase) of 1.27 µM. For the same compound, the Ratio IC50 (Homo sapiens [2]) was 100.
CN(CCCOc1ccc2c(=O)c3ccccc3oc2c1)Cc1ccccc1 showed an IC50 (Acetylcholinesterase) of 2.68 µM, a Ratio IC50 (Homo sapiens [1]) of 3.11 and an IC50 (Cholinesterase) of 8.33 µM. It also gave a Ratio IC50 (Homo sapiens [2]) of 0.32.
CN(CCCCCOc1ccc2c(=O)c3ccccc3oc2c1)Cc1ccccc1 showed an IC50 (Acetylcholinesterase) of 7.78 µM, a Ratio IC50 (Homo sapiens [1]) of 0.32 and an IC50 (Cholinesterase) of 2.49 µM. The Ratio IC50 (Homo sapiens [2]) was 3.12.
CN(CCCCCCCCCCCCOc1ccc2c(=O)c3ccccc3oc2c1)Cc1ccccc1 gave a Ratio IC50 (Homo sapiens [2]) of 6050.
In the case of CN(CCCCCCCCCCCOc1ccc2c(=O)c3ccccc3oc2c1)Cc1ccccc1, the Ratio IC50 (Homo sapiens [2]) is reported as 5220.
In the case of Cc1ccccc1CN(C)CCCCCCCOc1ccc2c(=O)c3ccccc3oc2c1, the IC50 (Acetylcholinesterase) is reported as 565 µM, the Ratio IC50 (Homo sapiens [1]) is reported as 0.05 and the IC50 (Cholinesterase) is reported as 29.5 µM. It also gave a Ratio IC50 (Homo sapiens [2]) of 19.1.
CN(CCCCCCCOc1ccc2c(=O)c3ccccc3oc2c1)Cc1ccccc1Cl was tested, and the IC50 (Acetylcholinesterase) was 433 µM, the Ratio IC50 (Homo sapiens [1]) was 0.62 and the IC50 (Cholinesterase) was 269 µM. It also gave a Ratio IC50 (Homo sapiens [2]) of 1.6.
Work on COc1ccc(CN(C)CCCCCCCOc2ccc3c(=O)c4ccccc4oc3c2)cc1 yielded an IC50 (Acetylcholinesterase) of 360 µM, a Ratio IC50 (Homo sapiens [1]) of 0.006 and an IC50 (Cholinesterase) of 2.11 µM. The Ratio IC50 (Homo sapiens [2]) was 171.
For CN(CCCCCCCOc1ccc2c(=O)c3ccccc3oc2c1)Cc1ccccc1[N+](=O)[O-], the IC50 (Acetylcholinesterase) was 413 µM, the Ratio IC50 (Homo sapiens [1]) was 0.03 and the IC50 (Cholinesterase) was 14 µM. The Ratio IC50 (Homo sapiens [2]) was 29.5.
With CN(CCCCCCCOc1ccc2c(=O)c3ccccc3oc2c1)Cc1ccccc1 the IC50 (Acetylcholinesterase) was 2.82 µM, the Ratio IC50 (Homo sapiens [1]) was 0.28 and the IC50 (Cholinesterase) was 0.8 µM. It also gave a Ratio IC50 (Homo sapiens [2]) of 3.52.
Compound COc1cc2oc3cc(OCCCCCCCN(C)Cc4ccccc4)ccc3c(=O)c2cc1OC has an IC50 (Acetylcholinesterase) of 2.32 µM, a Ratio IC50 (Homo sapiens [1]) of 1.33 and an IC50 (Cholinesterase) of 3.08 µM. The Ratio IC50 (Homo sapiens [2]) was 0.75.
CN(CCCCCCOc1ccc2c(=O)c3ccccc3oc2c1)Cc1ccccc1 showed an IC50 (Acetylcholinesterase) of 2.89 µM, a Ratio IC50 (Homo sapiens [1]) of 0.49 and an IC50 (Cholinesterase) of 1.43 µM. For the same compound, the Ratio IC50 (Homo sapiens [2]) was 2.02.
COc1ccc(CN(C)CCCCCCCOc2ccc3c(=O)c4ccccc4oc3c2)c(OC)c1OC showed an IC50 (Acetylcholinesterase) of 155 µM, a Ratio IC50 (Homo sapiens [1]) of 0.006 and an IC50 (Cholinesterase) of 1 µM. It also gave a Ratio IC50 (Homo sapiens [2]) of 155.
CN(CCCCCCCCOc1ccc2c(=O)c3ccccc3oc2c1)Cc1ccccc1 was tested, and the IC50 (Acetylcholinesterase) was 10.3 µM, the Ratio IC50 (Homo sapiens [1]) was 0.008 and the IC50 (Cholinesterase) was 0.08 µM. For the same compound, the Ratio IC50 (Homo sapiens [2]) was 129.
